Laboratory results: patent US10301280B2 (Plexxikon Inc., priority 2012, dated 2019)

What was measured:
[1] = system: BaF3-FL KIT D816V or BaF3-FL KIT V560G/D816V cell line; assay: Cell-based assays of c-Kit mutant kinase activity (cell growth, ATPlite); conditions: at least one of the c-kit cell assays of Example 26
Outline: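 BaF3 cells dependent on full-length human KIT (D816V or V560G/D816V) seeded at 1×10^4 cells/well in RPMI with 10% FBS. Eight-point 1:3 dilutions from 10 μM top final (0.2% DMSO), 3 days at 37° C., 5% CO2. ATPlite luminescence gave IC50.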

c-kit kinase = c-kit kinase (Homo sapiens (Human), UniProt P10721); assay: c-Kit biochemical assay (AlphaScreen); conditions: c-kit biochemical inhibitory activity
Method: Assays for biochemical cell-based activity of c-kit kinase are known in the art, for example, as described in U.S. Pat. Nos. 7,498,342 and 7,846,941, the disclosures of which are hereby incorporated by reference as it relates to such assays. The c-kit (or kinase domain thereof) is an active kinase in AlphaScreen. IC50 values are determined with respect to inhibition of c-Kit kinase activity, where inhibition of phosphorylation of a peptide substrate is measured as a function of compound concentration. Compounds to be tested were dissolved in DMSO to a concentration of 20 mM. These were diluted 30 μl into 120 μl of DMSO (4 mM) and 1 μl was added to an assay plate. These were then serially diluted 1:3 (50 μl to 100 μl DMSO) for a total of 8 points. Plates were prepared such that each kinase reaction is 20 μl in 1× kinase buffer (50 mM HEPES, pH 7.2, 5 mM MgCl2, 5 mM MnCl2, 0.01% NP-40, 0.2% BSA), 5% DMSO and 10 µM ATP. Substrate was 100 nM biotin-(E4Y)3 (Open Source Biotech, Inc.). C-kit kinase was at 0.1 ng per sample. After incubation of the kinase reaction for 1 hour at room temperature, 5 μl of donor beads (Streptavidin coated beads (Perkin Elmer Life Science) final concentration 1 μg/ml) in stop buffer (50 mM EDTA in 1× kinase buffer) was added, the sample was mixed and incubated for 20 minutes at room temperature before adding 5 μl of acceptor beads (PY20 coated beads (Perkin Elmer Life Science) final concentration 1 μg/ml) in stop buffer. The samples were incubated for 60 minutes at room temperature and the signal per well was read on AlphaQuest reader. Phosphorylated substrate results in binding of the PY20 antibody and association of the donor and acceptor beads such that signal correlates with kinase activity. The signal vs. compound concentration was used to determine the IC50.
Compounds were also tested using a similar assay with a 10-fold higher ATP concentration. For these samples, compounds to be tested were dissolved in DMSO to a concentration of 20 mM. These were diluted 30 μl into 120 μl of DMSO (4 mM) and 1 μl was added to an assay plate. These were then serially diluted 1:3 (50 μl to 100 μl DMSO) for a total of 8 points. Plates were prepared such that each kinase reaction is 20 μl in 1× kinase buffer (25 mM HEPES, pH 7.5, 2 mM MgCl2, 2 mM MnCl2, 0.01% Tween-20, 1 mM DTT, and 0.001% BSA), 5% DMSO and 100 µM ATP. Substrate was 30 nM biotin-(E4Y)10 (Upstate Biotech, Cat#12-440). C-kit kinase was at 1 ng per sample. After incubation of the kinase reaction for 1 hour at room temperature, 5 μl of donor beads (Streptavidin coated beads (Perkin Elmer Life Science) final concentration 10 μg/ml) in stop buffer (25 mM HEPES pH 7.5, 100 mM EDTA, 0.3% BSA) was added, the sample was mixed and incubated for 20 minutes at room temperature before adding 5 μl of acceptor beads (PY20 coated beads (Perkin Elmer Life Science) final concentration 10 μg/ml) in stop buffer. The samples were incubated for 60 minutes at room temperature and the signal per well was read on AlphaQuest or Envision reader (Perkin Elmer Life Science). Phosphorylated substrate results in binding of the PY20 antibody and association of the donor and acceptor beads such that signal correlates with kinase activity. The signal vs. compound concentration was used to determine the IC50.
The c-kit enzyme used in the above assay was either obtained from Cell Signaling Technology (Cat. #7754) or was prepared as follows: A plasmid encoding kit (DNA and encoded protein sequences shown below) was engineered using common polymerase chain reaction (PCR) methods. Complementary DNA cloned from various human tissues were purchased from Invitrogen, and these were used as substrates in the PCR reactions. Specific custom synthetic oligonucleotide primers were designed to initiate the PCR product, and also to provide the appropriate restriction enzyme cleavage sites for ligation with the plasmids. […]

Sequence of c-kit kinase (P10721 26-976): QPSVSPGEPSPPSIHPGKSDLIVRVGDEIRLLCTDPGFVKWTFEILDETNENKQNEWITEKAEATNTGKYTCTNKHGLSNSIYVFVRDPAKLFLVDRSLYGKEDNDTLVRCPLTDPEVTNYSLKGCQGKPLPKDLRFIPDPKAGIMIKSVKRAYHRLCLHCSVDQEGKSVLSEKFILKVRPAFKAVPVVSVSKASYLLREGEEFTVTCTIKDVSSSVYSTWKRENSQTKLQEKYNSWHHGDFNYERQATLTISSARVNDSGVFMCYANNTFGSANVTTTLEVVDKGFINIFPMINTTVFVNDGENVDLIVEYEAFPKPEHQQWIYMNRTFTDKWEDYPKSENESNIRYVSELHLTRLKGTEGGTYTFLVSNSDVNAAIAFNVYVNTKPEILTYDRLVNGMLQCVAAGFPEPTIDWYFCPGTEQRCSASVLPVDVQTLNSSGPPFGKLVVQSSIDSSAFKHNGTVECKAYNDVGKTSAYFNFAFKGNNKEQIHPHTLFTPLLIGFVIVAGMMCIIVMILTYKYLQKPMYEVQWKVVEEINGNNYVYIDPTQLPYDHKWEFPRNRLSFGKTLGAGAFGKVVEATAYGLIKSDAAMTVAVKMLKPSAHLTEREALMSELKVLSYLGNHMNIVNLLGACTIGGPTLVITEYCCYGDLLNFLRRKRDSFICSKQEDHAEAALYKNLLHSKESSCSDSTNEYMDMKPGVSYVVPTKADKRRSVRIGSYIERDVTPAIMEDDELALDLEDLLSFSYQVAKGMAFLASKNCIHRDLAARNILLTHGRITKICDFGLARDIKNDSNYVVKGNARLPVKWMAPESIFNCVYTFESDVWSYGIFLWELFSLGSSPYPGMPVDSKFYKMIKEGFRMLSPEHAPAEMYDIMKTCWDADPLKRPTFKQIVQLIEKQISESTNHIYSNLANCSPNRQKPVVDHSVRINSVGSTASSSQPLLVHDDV

SMILES: O=C(Nc1cnc2[nH]c(-c3ccc(F)cc3)cc2c1)c1n[nH]c2c1CCCC2 [P-2047, N-[2-(4-fluorophenyl)-1H-pyrrolo[2,3-b]pyridin-5-yl]-4,5,6,7-tetrahydro-1H-indazole-3-carboxamide]
- IC50 [1]: < 10 µM
- IC50 (c-kit kinase): 10 to 200 µM

SMILES: Cc1n[nH]c(C(=O)Nc2cnc3[nH]c(-c4cnn(C5CCNCC5)c4)cc3c2)c1C [P-2048, 3,4-dimethyl-N-[2-[1-(4-piperidyl)pyrazol-4-yl]-1H-pyrrolo[2,3-b]pyridin-5-yl]-1H-pyrazole-5-carboxamide]
- IC50 [1]: < 10 µM
- IC50 (c-kit kinase): 0.0001 to 1 µM

SMILES: Cc1n[nH]c(C(=O)Nc2cnc3[nH]c(Cl)cc3c2)c1C [P-2049, N-(2-chloro-1H-pyrrolo[2,3-b]pyridin-5-yl)-3,4-dimethyl-1H-pyrazole-5-carboxamide]
- IC50 [1]: < 10 µM
- IC50 (c-kit kinase): 10 to 200 µM

SMILES: CCNS(=O)(=O)c1cccc(Nc2ncc(NC(=O)c3[nH]nc(C)c3C)cn2)c1 [P-2050, N-[2-[3-(ethylsulfamoyl)anilino]pyrimidin-5-yl]-3,4-dimethyl-1H-pyrazole-5-carboxamide]
- IC50 [1]: < 10 µM
- IC50 (c-kit kinase): 10 to 200 µM

SMILES: Cc1n[nH]c(C(=O)Nc2cnc(Nc3cccc(N4CCOCC4)c3)nc2)c1C [P-2051, 3,4-dimethyl-N-[2-(3-morpholinoanilino)pyrimidin-5-yl]-1H-pyrazole-5-carboxamide]
- IC50 [1]: < 10 µM
- IC50 (c-kit kinase): 0.0001 to 1 µM

SMILES: CCCS(=O)(=O)Nc1cccc(Nc2ncc(NC(=O)c3[nH]nc(C)c3C)cn2)c1 [P-2052, 3,4-dimethyl-N-[2-[3-(propylsulfonylamino)anilino]pyrimidin-5-yl]-1H-pyrazole-5-carboxamide]
- IC50 [1]: < 10 µM
- IC50 (c-kit kinase): 1 to 10 µM

SMILES: Cc1n[nH]c(C(=O)Nc2cnc(Nc3cccc(NS(=O)(=O)c4ccccc4)c3)nc2)c1C [P-2053, N-[2-[3-(benzenesulfonamido)anilino]pyrimidin-5-yl]-3,4-dimethyl-1H-pyrazole-5-carboxamide]
- IC50 [1]: < 10 µM
- IC50 (c-kit kinase): 1 to 10 µM

SMILES: CNC(=O)c1cccc(Nc2ncc(NC(=O)c3[nH]nc(C)c3C)cn2)c1 [P-2054, 3,4-dimethyl-N-[2-[3-(methylcarbamoyl)anilino]pyrimidin-5-yl]-1H-pyrazole-5-carboxamide]
- IC50 [1]: < 10 µM
- IC50 (c-kit kinase): 1 to 10 µM

SMILES: CCOC(=O)Nc1cccc(Nc2ncc(NC(=O)c3[nH]nc(C)c3C)cn2)c1 [P-2055, ethyl N-[3-[[5-[(3,4-dimethyl-1H-pyrazole-5-carbonyl)amino]pyrimidin-2-yl]amino]phenyl]carbamate]
- IC50 [1]: < 10 µM
- IC50 (c-kit kinase): 1 to 10 µM

SMILES: Cc1n[nH]c(C(=O)Nc2cnc3[nH]c(C4=CCN(S(C)(=O)=O)CC4)cc3c2)c1Cl [P-2057, 4-chloro-3-methyl-N-[2-(1-methylsulfonyl-3,6-dihydro-2H-pyridin-4-yl)-1H-pyrrolo[2,3-b]pyridin-5-yl]-1H-pyrazole-5-carboxamide]
- IC50 [1]: < 10 µM
- IC50 (c-kit kinase): 0.0001 to 1 µM

SMILES: Cc1cc(C(=O)Nc2cnc3[nH]c(N4CCOCC4)cc3c2)[nH]n1 [P-2058, 3-methyl-N-(2-morpholino-1H-pyrrolo[2,3-b]pyridin-5-yl)-1H-pyrazole-5-carboxamide]
- IC50 [1]: < 10 µM
- IC50 (c-kit kinase): 10 to 200 µM

SMILES: Cc1n[nH]c(C(=O)Nc2cnc3[nH]c(-c4cnc(N5CCN(C)CC5)nc4)cc3c2)c1C [P-2160, 3,4-dimethyl-N-[2-[2-(4-methylpiperazin-1-yl)pyrimidin-5-yl]-1H-pyrrolo[2,3-b]pyridin-5-yl]-1H-pyrazole-5-carboxamide]
- IC50 [1]: < 10 µM
- IC50 (c-kit kinase): 1 to 10 µM

SMILES: Cc1n[nH]c(C(=O)Nc2cnc3[nH]nc(-c4cccc(N5CCN(C(=O)OC(C)(C)C)CC5)c4)c3c2)c1C [P-2162, tert-butyl 4-[3-[5-[(3,4-dimethyl-1H-pyrazole-5-carbonyl)amino]-1H-pyrazolo[3,4-b]pyridin-3-yl]phenyl]piperazine-1-carboxylate]
- IC50 [1]: < 10 µM
- IC50 (c-kit kinase): 0.0001 to 1 µM

SMILES: Cc1n[nH]c(C(=O)Nc2cnc3[nH]c(-c4ccnc(C(C)C)c4)cc3c2)c1C [P-2163, N-[2-(2-isopropyl-4-pyridyl)-1H-pyrrolo[2,3-b]pyridin-5-yl]-3,4-dimethyl-1H-pyrazole-5-carboxamide]
- IC50 [1]: < 10 µM
- IC50 (c-kit kinase): 0.0001 to 1 µM

SMILES: [2H]c1c([2H])c([2H])c(-c2cc3cc(NC(=O)c4[nH]nc(C)c4C)cnc3[nH]2)c([2H])c1[2H] [P-2164, 3,4-dimethyl-N-[2-(2,3,4,5,6-pentadeuteriophenyl)-1H-pyrrolo[2,3-b]pyridin-5-yl]-1H-pyrazole-5-carboxamide]
- IC50 [1]: < 10 µM
- IC50 (c-kit kinase): 1 to 10 µM

SMILES: Cc1n[nH]c(C(=O)Nc2cnc3[nH]c(-c4c(C)nn(C)c4C)cc3c2)c1C [P-2165, 3,4-dimethyl-N-[2-(1,3,5-trimethylpyrazol-4-yl)-1H-pyrrolo[2,3-b]pyridin-5-yl]-1H-pyrazole-5-carboxamide]
- IC50 [1]: < 10 µM
- IC50 (c-kit kinase): 0.0001 to 1 µM

SMILES: Cc1n[nH]c(C(=O)Nc2cnc3[nH]nc(-c4cccc(N5CCNCC5)c4)c3c2)c1C [P-2166, 3,4-dimethyl-N-[3-(3-piperazin-1-ylphenyl)-1H-pyrazolo[3,4-b]pyridin-5-yl]-1H-pyrazole-5-carboxamide]
- IC50 [1]: < 10 µM
- IC50 (c-kit kinase): 0.0001 to 1 µM

SMILES: Cc1n[nH]c(C(=O)Nc2cnc3[nH]c(-c4c(C)n[nH]c4C)cc3c2)c1C [P-2167, N-[2-(3,5-dimethyl-1H-pyrazol-4-yl)-1H-pyrrolo[2,3-b]pyridin-5-yl]-3,4-dimethyl-1H-pyrazole-5-carboxamide]
- IC50 [1]: < 10 µM
- IC50 (c-kit kinase): 0.0001 to 1 µM

SMILES: Cc1nn(C2COC2)cc1-c1cc2cc(NC(=O)c3[nH]nc(C)c3C)cnc2[nH]1 [P-2168, 3,4-dimethyl-N-[2-[3-methyl-1-(oxetan-3-yl)pyrazol-4-yl]-1H-pyrrolo[2,3-b]pyridin-5-yl]-1H-pyrazole-5-carboxamide]
- IC50 [1]: < 10 µM
- IC50 (c-kit kinase): 0.0001 to 1 µM

SMILES: Cc1n[nH]c(C(=O)Nc2cnc3[nH]c(-c4ccc(F)c(-c5nn[nH]n5)c4)cc3c2)c1C [P-2174, N-[2-[4-fluoro-3-(2H-tetrazol-5-yl)phenyl]-1H-pyrrolo[2,3-b]pyridin-5-yl]-3,4-dimethyl-1H-pyrazole-5-carboxamide]
- IC50 [1]: < 10 µM
- IC50 (c-kit kinase): 1 to 10 µM

SMILES: Cc1n[nH]c(C(=O)Nc2cnc3[nH]c(-c4cccnc4C(F)(F)F)cc3c2)c1C [P-2176, 3,4-dimethyl-N-[2-[2-(trifluoromethyl)-3-pyridyl]-1H-pyrrolo[2,3-b]pyridin-5-yl]-1H-pyrazole-5-carboxamide]
- IC50 [1]: < 10 µM
- IC50 (c-kit kinase): 10 to 200 µM

SMILES: CCc1cc(-c2cc3cc(NC(=O)c4[nH]nc(C)c4C)cnc3[nH]2)ccn1 [P-2177, N-[2-(2-ethyl-4-pyridyl)-1H-pyrrolo[2,3-b]pyridin-5-yl]-3,4-dimethyl-1H-pyrazole-5-carboxamide]
- IC50 [1]: < 10 µM
- IC50 (c-kit kinase): 0.0001 to 1 µM

SMILES: CCc1ccc(-c2cc3cc(NC(=O)c4[nH]nc(C)c4C)cnc3[nH]2)cn1 [P-2178, N-[2-(6-ethyl-3-pyridyl)-1H-pyrrolo[2,3-b]pyridin-5-yl]-3,4-dimethyl-1H-pyrazole-5-carboxamide]
- IC50 [1]: < 10 µM
- IC50 (c-kit kinase): 10 to 200 µM

SMILES: Cc1n[nH]c(C(=O)Nc2cnc3[nH]c(-c4ccnc5c4OCCO5)cc3c2)c1C [P-2179, N-[2-(2,3-dihydro-[1,4]dioxino[2,3-b]pyridin-8-yl)-1H-pyrrolo[2,3-b]pyridin-5-yl]-3,4-dimethyl-H-pyrazole-5-carboxamide]
- IC50 [1]: < 10 µM
- IC50 (c-kit kinase): 1 to 10 µM
